A word on the IC50: it is the midpoint of a concentration-inhibition curve.

The values below come from patent US5326902A, “Oxyalkyne compounds, pharmaceutical compositions containing them and processes for preparing such compounds and compositions” (Gruenenthal GmbH, priority 1992, dated 1994).

In one test the target is T1, 12-lipoxygenase (Homo sapiens, UniProt P18054).
T1 sequence (P18054 1-663): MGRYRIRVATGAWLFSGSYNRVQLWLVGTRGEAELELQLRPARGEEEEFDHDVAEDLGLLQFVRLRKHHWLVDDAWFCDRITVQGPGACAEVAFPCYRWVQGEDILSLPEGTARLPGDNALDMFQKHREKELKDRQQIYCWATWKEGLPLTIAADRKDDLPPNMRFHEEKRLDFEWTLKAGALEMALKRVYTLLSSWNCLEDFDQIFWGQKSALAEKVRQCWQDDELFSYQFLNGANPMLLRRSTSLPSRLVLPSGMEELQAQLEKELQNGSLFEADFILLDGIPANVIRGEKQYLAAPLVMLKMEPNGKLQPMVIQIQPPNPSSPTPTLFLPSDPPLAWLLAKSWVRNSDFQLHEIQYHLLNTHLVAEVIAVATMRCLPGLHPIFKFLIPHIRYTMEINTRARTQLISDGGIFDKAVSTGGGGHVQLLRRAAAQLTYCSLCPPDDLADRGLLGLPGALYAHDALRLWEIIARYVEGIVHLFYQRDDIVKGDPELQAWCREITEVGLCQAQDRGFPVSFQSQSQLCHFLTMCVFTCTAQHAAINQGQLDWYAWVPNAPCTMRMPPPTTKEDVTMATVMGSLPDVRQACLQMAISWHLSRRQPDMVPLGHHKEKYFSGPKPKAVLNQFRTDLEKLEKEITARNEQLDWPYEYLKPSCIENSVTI
The test is described as follows: Inhibition of 12-lipoxygenase in human blood. It counts as cell-based. The arrangement: 3 ml aliquots of human whole blood treated with heparin; from tissue; host or cells: human whole blood (heparinized). Particulars: human whole blood; calcium ionophore A 23 187 15 μg/ml; 37° C., 30 minutes; 12-HETE by HPLC. As to the method:
3 ml aliquots of human whole blood treated with heparin were incubated either with a compound according to the invention or with dimethyl sulfoxide at 37° C. for 5 minutes. Then 12-lipoxygenase was activated by addition of calcium ionophore A 23 187 (15 μg/ml blood). After incubation at 37° C. for 30 minutes and centrifugation, cell-free plasma was obtained. Plasma protein was precipitated by addition of 2 ml of ethanol per ml of plasma and then separated by centrifugation. After adjusting the ethanol content in the supernatant with water to 10% by volume, the 12-lipoxygenase product 12-HETE was enriched by solid phase extraction using an octadecyl silica column. The methanolic eluate was evaporated to dryness, diluted in 40% by volume of methanol, and the 12-HETE-content was determined by HPLC. The IC50 -values of the compounds of the invention prepared according to Examples 1, 8 and 16 were 2, 4 and 3 μmolar, respectively.

The test system of a further test is Leukotriene-synthesis. In words: Inhibition of Leukotriene-synthesis Induced by FMLP/merthiolate of Human Polymorphonuclear Leukocytes. Format: cell-based. The settings on record: Leukocyte, 5 minutes preincubation at 37° C., centrifuged and resuspended in HBSS before merthiolate (40 μM) and FMLP (10^-7 M), read-out: IC50-value of the reversible inhibitory action. As to the method:
Human granulocytes were isolated by dextran sedimentation and a Percoll gradient method and suspended in HBSS (Hanks buffered saline solution) at 1×10^7 cells/ml. The cells were incubated in the presence of a compound according to the invention or a solvent (ethanol and/or dimethyl sulfoxide) at 37° C. for 2 minutes, then with merthiolate (sodium ethylmercurithiosalicylate; 40 μM) for 2 minutes and thereafter with FMLP (formyl-methionyl-leucylphenylalanine; 10^-7 M) for 15 minutes. After solid phase extraction, the metabolites of arachidonic acid 5-HETE, LTB4, 6-trans-LTB4 -isomers, 20-OH-LTB4 and 20-COOH-LTB4 were identified by RP-HPLC (M. Haurand and L. Flohe in Biochem. Pharmacol. 38, 2129 to 2137 (1989)).
To investigate the reversibility of the inhibitory action, the cells were incubated with a compound according to the invention or a solvent (ethanol and/or dimethyl sulfoxide) at 37° C. for 5 minutes, centrifuged at 300 × g for 5 minutes, and resuspended in 2 ml of HBSS. Then the cells were incubated with merthiolate (40 μM) at 37° C. for 2 minutes and thereafter with FMLP (10^-7 M) for 15 minutes. The IC50 -value of the reversible inhibitory action was 2 μmolar when the compound prepared according to Example 1 was used.

Regarding `CC(=O)N(O)Cc1ccc(C(O)C#Cc2ccccc2)cc1` (racemic) [Example 1, N-Hydroxy-N-[4-[1-hydroxy-3-phenyl-prop-2-yn-1-yl]benzyl]acetamide], the IC50 at 12-lipoxygenase and in the test with Leukotriene-synthesis was 2 µM each time.
